In ChEMBL document CHEMBL3603812, “Biarylsulfonamide CCR9 inhibitors for inflammatory bowel disease” (Bioorg Med Chem Lett, 2015):
Values after ≈ are worked out from the molar mass of the structure shown.

Experiments:
[1] = target: T1, C-C chemokine receptor type 9 (Homo sapiens, UniProt P51686)
T1 sequence (P51686 whole entry): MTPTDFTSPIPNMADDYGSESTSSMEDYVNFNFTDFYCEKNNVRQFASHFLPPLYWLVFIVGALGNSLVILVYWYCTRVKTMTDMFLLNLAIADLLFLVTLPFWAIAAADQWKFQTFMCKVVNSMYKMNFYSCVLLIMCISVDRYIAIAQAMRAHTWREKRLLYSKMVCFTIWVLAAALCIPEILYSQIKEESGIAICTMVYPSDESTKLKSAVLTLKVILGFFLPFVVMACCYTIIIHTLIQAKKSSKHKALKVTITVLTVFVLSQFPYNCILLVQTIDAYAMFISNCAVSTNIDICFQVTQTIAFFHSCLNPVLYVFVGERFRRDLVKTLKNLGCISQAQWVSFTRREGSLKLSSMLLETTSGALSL
Description: Antagonist activity at CCR9 receptor (unknown origin) assessed as inhibition of TECK-induced calcium mobilization incubated for 10 mins prior to TECK induction

[2] = Solubility of the compound at pH 7.4; assay type: physicochemical; conditions: buffer
[3] = Solubility of the compound at pH 9; assay type: physicochemical; conditions: buffer
[4] = Plasma protein binding in human; assay type: ADME, cell-free; conditions: read-out: PPB (converted)
[5] = Clearance in mouse liver microsomes; assay type: ADME; conditions: read-out: CLH
Mus musculus = assay: Dose normalized AUC in iv dosed mouse; assay type: ADME, organism-based; conditions: in vivo
[6] = Clearance in iv dosed mouse; assay type: ADME, organism-based; conditions: in vivo
[7] = Terminal half life in iv and po dosed mouse; assay type: ADME, organism-based; conditions: in vivo, read-out: beta t1/2 (converted)
[8] = Volume of distribution at steady state in iv dosed mouse; assay type: ADME, organism-based; conditions: in vivo, read-out: Vdss
[9] = Oral bioavailability in mouse; assay type: ADME, organism-based; conditions: in vivo
[10] = Lipophilicity, log D of the compound; assay type: physicochemical; conditions: octanol/water

Row | Structure (SMILES) | IC50 [1] | further results
1 | CC(C)(C)c1ccc(S(=O)(=O)Nc2ccc(Cl)cc2-c2ccccn2)cc1 | > 10000 nM | –
2 | COc1ccnc(-c2cc(Cl)ccc2NS(=O)(=O)c2ccc(C(C)(C)C)cc2)c1 | 2500 nM | –
3 | CC(C)(C)c1ccc(S(=O)(=O)Nc2ccc(Cl)cc2-c2c(O)ccc[n+]2[O-])cc1 | 491 nM | –
4 | CC(C)(C)c1ccc(S(=O)(=O)Nc2ccc(Cl)cc2-c2nccc(C(N)=O)c2O)cc1 | 52 nM | –
5 | CC(C)(C)c1ccc(S(=O)(=O)Nc2ccc(Cl)cc2-c2nccc(CO)c2O)cc1 | 8.7 nM | –
6 | CC(C)(C)c1ccc(S(=O)(=O)Nc2ccc(Cl)cc2-c2nc(N)ncc2O)cc1 | 4 nM | –
7 | CC(C)(C)c1ccc(S(=O)(=O)Nc2ccc(Cl)cc2-c2nc(NCCO)ncc2O)cc1 | 214 nM | –
8 | CC(C)(C)c1ccc(S(=O)(=O)Nc2ccc(Cl)cc2-c2ncnc(N)c2O)cc1 | 14 nM | –
9 | CN(C)c1ncnc(-c2cc(Cl)ccc2NS(=O)(=O)c2ccc(C(C)(C)C)cc2)c1O | 9 nM | –
10 | CC(C)(C)c1ccc(S(=O)(=O)Nc2ccc(Cl)cc2-c2nncc(N3CCOCC3)c2N)cc1 | 26 nM | –
11 | CC(C)(C)c1ccc(S(=O)(=O)Nc2ccc(Cl)cc2-c2ncnc(CO)c2O)cc1 | 11 nM | –
12 | CNc1cnc(-c2cc(Cl)ccc2NS(=O)(=O)c2ccc(C(C)(C)C)cc2)c(NCCO)n1 | 1010 nM | –
13 | CC(C)(C)c1ccc(S(=O)(=O)Nc2ccc(Cl)cc2-c2nc(Cl)cnc2NCCO)cc1 | 715 nM | –
14 | CC(C)(C)c1ccc(S(=O)(=O)Nc2ccc(Cl)cc2C(=O)c2cc[n+]([O-])cc2)cc1 [VERCIRNON] | – | solubility [2]: 1.2 µg/mL (≈ 2.7 µM); solubility [3]: 51 µg/mL (≈ 115 µM); fraction unbound [4]: 0.009; CLint scaled [5]: 147 mL/min/kg; AUC/dose (Mus musculus): 0.56 µg·h/mL/mg/kg; clearance [6]: 33 mL/min/kg; half-life [7]: 1.3 h; Vd [8]: 0.83 L/kg; bioavailability [9]: 10%; logD [10]: 3.7

More lines, main results first:

Row | IC50 [1] | Structure (SMILES) | further results
15 | 958 nM | COc1cccnc1-c1cc(Cl)ccc1NS(=O)(=O)c1ccc(C(C)(C)C)cc1 | –
16 | 29 nM | CC(C)(C)c1ccc(S(=O)(=O)Nc2ccc(Cl)cc2-c2ncccc2O)cc1 | –
17 | 95 nM | CC(C)(C)c1ccc(S(=O)(=O)Nc2ccc(Cl)cc2-c2ncccc2N)cc1 | –
18 | 89 nM | CC(C)(C)c1ccc(S(=O)(=O)Nc2ccc(Cl)cc2-c2ncccc2CO)cc1 | –
19 | 3160 nM | CC(C)(C)c1ccc(S(=O)(=O)Nc2ccc(Cl)cc2-c2ncccc2CN)cc1 | –
20 | 3480 nM | COCc1cccnc1-c1cc(Cl)ccc1NS(=O)(=O)c1ccc(C(C)(C)C)cc1 | –
21 | 0.3 nM | CC(C)(C)c1ccc(S(=O)(=O)Nc2ccc(Cl)cc2-c2ncccn2)cc1 | –
22 | 3.2 nM | CC(C)(C)c1ccc(S(=O)(=O)Nc2ccc(Cl)cc2-c2ncncc2N)cc1 | –
23 | 3.2 nM | CC(C)(C)c1ccc(S(=O)(=O)Nc2ccc(Cl)cc2-c2nccnc2N)cc1 | –
24 | 3.8 nM | CC(C)(C)c1ccc(S(=O)(=O)Nc2ccc(Cl)cc2-c2nnccc2N)cc1 | –
25 | 11 nM | CC(C)(C)c1ccc(S(=O)(=O)Nc2ccc(Cl)cc2-c2ncncc2O)cc1 | –
26 | 27 nM | CNc1ncc(O)c(-c2cc(Cl)ccc2NS(=O)(=O)c2ccc(C(C)(C)C)cc2)n1 | –
27 | 6 nM | CCc1ncnc(-c2cc(Cl)ccc2NS(=O)(=O)c2ccc(C(C)(C)C)cc2)c1O | –
28 | 25 nM | CNc1nccnc1-c1cc(Cl)ccc1NS(=O)(=O)c1ccc(C(C)(C)C)cc1 | –
29 | 421 nM | CCNc1nccnc1-c1cc(Cl)ccc1NS(=O)(=O)c1ccc(C(C)(C)C)cc1 | –
30 | 34 nM | CC(C)(C)c1ccc(S(=O)(=O)Nc2ccc(Cl)cc2-c2nccnc2NCCO)cc1 | solubility [2]: 240 µg/mL (≈ 521 µM); solubility [3]: 1100 µg/mL (≈ 2390 µM); fraction unbound [4]: 0.016; CLint scaled [5]: 49 mL/min/kg; AUC/dose (Mus musculus): 0.65 µg·h/mL/mg/kg; clearance [6]: 26 mL/min/kg; half-life [7]: 1.2 h; Vd [8]: 1.1 L/kg; bioavailability [9]: 38%
31 | 614 nM | CC(C)(C)c1ccc(S(=O)(=O)Nc2ccc(Cl)cc2-c2nccnc2NCCCO)cc1 | –
32 | 3600 nM | CN(C)CCNc1nccnc1-c1cc(Cl)ccc1NS(=O)(=O)c1ccc(C(C)(C)C)cc1 | –
33 | 812 nM | CC(C)(C)c1ccc(S(=O)(=O)Nc2ccc(Cl)cc2-c2nccnc2NCC(=O)O)cc1 | –
34 | 268 nM | Cc1cnc(-c2cc(Cl)ccc2NS(=O)(=O)c2ccc(C(C)(C)C)cc2)c(NCCO)n1 | –
